Laboratory results reported in patent US5045566A, “Novel imidate insecticides” (ICI Americas Inc., priority 1989, dated 1991).

Key:
Type in all cases: in vivo
[1] = system: Housefly [Musca domestica]; experiment: Housefly contact mortality in dishes (HF), 48 hours; details: μg of test compound per 25 female flies
Procedure: (§1) The compounds in Tables 1 and 2 above were tested for insecticidal activity using the following testing procedures. LC50 values, based on the results of these tests and calculated according to dosage-mortality curves, are expressed in Table 3.
Housefly [Musca domestica]:
Test compounds were diluted in acetone and aliquots pipetted onto the bottom of aluminum dishes. To ensure even spreading of the chemical on the bottom of the dishes, 1 ml of acetone containing 0.01% peanut oil was also added to each dish. After all solvents had evaporated, the dishes were placed in circular cardboard cages containing 25 female houseflies, 1-2 days old. The cages were covered on the bottom with cellophane and on the top with tulle netting, and each contained a sugar-water saturated cotton plug for maintenance of the flies. Mortality was recorded after 48 hours. Test levels ranged from 100 μg/25 female houseflies downward. The LC-50 value is expressed below in Table 3 under the heading "HF", in terms of μg of the test compound per 25 female flies.

[2] = system: Cabbage Looper [Trichoplusia ni (Hubner)]; experiment: Cabbage looper leaf dip (CL), 3-5 days; details: percent in solution, second-instar larvae
Procedure: as §1
Cabbage Looper [Trichoplusia ni (Hubner)]:
Test compounds were diluted in a 50-50 acetone-water solution. Cotyledons of hyzini squash (Calabacita abobrinha), approximately 1×1.5 inches, were immersed in the test solutions for 2-3 seconds and placed on a wire screen to dry. The dried leaves were placed in petri dishes containing a moistened piece of filter paper and infested with 5 second-instar cabbage looper larvae. The dishes were placed in a high humidity chamber. Mortality of the larvae was recorded 3-5 days later. Test concentrations ranged from 0.1% downward. The LC-50 value is expressed below in Table 3 under the heading "CL" in terms of percent of the test compound in solution.

[3] = system: Tobacco Budworm [Heliothis virescens (Fabricius)] eggs; experiment: Tobacco budworm eggs (TBW-E); details: percent in solution; 2-day old eggs
Procedure: as §1
Tobacco Budworm [Heliothis virescens (Fabricius)]:
(b). Eggs: Paper towel patches of 2-day old eggs of the tobacco budworm were dipped in acetone solutions of the test compound and placed in petri dishes containing a portion of larval rearing medium. Treated eggs were maintained at 78° F. and mortality was recorded after all control eggs had hatched and the young larvae were feeding on the media. Test concentrations ranged from 0.1% downward. The LC-50 value is expressed below in Table 3 under the heading "TBW-E" in terms of percent of the test compound in the solution.

[4] = system: Black Bean Aphid [Aphis fabae (Scop.)]; experiment: Black bean aphid spray test on nasturtium (BBA), 48 hours; details: percent of test compound in sprayed solution
Procedure: as §1
Black Bean Aphid [Aphis fabae (Scop.)]:
Nasturtium plants (Tropaeolum sp.) approximately 5 cm tall, were transplanted into sandy loam soil in small cups and infested with 25-50 black bean aphids of mixed ages. Twenty-four hours later they were sprayed to the point of runoff with 50-50 acetone-water solutions of the test compounds. Treated plants were held in the greenhouse and mortality was recorded after 48 hours. Test concentrations ranged from 0.05% downward. The LC-50 value is expressed below in Table 3 under the heading "BBA" in terms of percent of the test compound in the sprayed solution.

SMILES | LC50 HF [1] [µg] | LC50 CL [2] [%] | LC50 TBW E (eggs) [3] [%] | LC50 BBA [4] [%]
CC(C)(C)C(=Nc1cccc(Cl)c1)OCc1cccc(Oc2ccccc2)c1 [Compound 12] | > 100 | 0.008 | > 0.1 | > 0.05
CC1CC1C(=Nc1ccc(Cl)cc1)OCc1cccc(Oc2ccccc2)c1 (stereo not drawn) [Compound 15] | > 100 | 0.025 | > 0.1 | > 0.05
CC(C)C(=Nc1cc(Cl)c(Cl)cc1Cl)OCc1cccc(Oc2ccccc2)c1 [Compound 18] | > 100 | 0.008 | 0.09 | 0.003
CC(C)C(=Nc1c(Cl)cc(Cl)cc1Cl)OCc1cccc(Oc2ccccc2)c1 [Compound 19] | > 100 | < 0.1 | > 0.1 | 0.05
COC(C)C(=Nc1ccc(Cl)cc1)OCc1cccc(Oc2ccccc2)c1 (stereo not drawn) [Compound 22] | 15 | 0.004 | 0.08 | 0.01
Clc1cccc(N=C(OCc2cccc(Oc3ccccc3)c2)C2CC2)c1 [Compound 24] | 25 | 0.005 | 0.1 | 0.01
CC(C)(C)C(=Nc1ccc(F)cc1)OCc1cccc(Oc2ccccc2)c1 [Compound 48] | > 100 | 0.03 | > 0.05 | > 0.05
CC(C)C(=Nc1cc(F)ccc1F)OCc1cccc(Oc2ccccc2)c1 [Compound 56] | 91 | 0.01 | > 0.05 | 0.03
CC(C)C(=Nc1cc(F)c(F)cc1F)OCc1cccc(Oc2ccccc2)c1 [Compound 58] | 16 | 0.002 | 0.06 | 0.003
COc1cc(N=C(OCc2cccc(Oc3ccccc3)c2)C(C)C)cc(C(F)(F)F)c1 [Compound 76] | 20 | 0.002 | 0.05 | 0.003
CC(C)C(=Nc1cc(C(F)(F)F)cc(C(F)(F)F)c1)OCc1cccc(Oc2ccccc2)c1 [Compound 78] | > 100 | 0.0025 | > 0.1 | 0.03
CC(C)C(=Nc1ccc(Br)cc1F)OCc1cccc(Oc2ccccc2)c1 [Compound 79] | 6 | 0.003 | 0.05 | 0.03
CC(C)C(=Nc1cc(C(F)(F)F)ccc1F)OCc1cccc(Oc2ccccc2)c1 [Compound 84] | 93 | 0.006 | 0.1 | 0.03
FC(F)(F)c1cccc(N=C(OCc2cccc(Oc3ccccc3)c2)C2CC2)c1 [Compound 86] | 65 | 0.013 |  | < 0.05
Cc1cc(N=C(OCc2cccc(Oc3ccccc3)c2)C(C)C)ccc1F [Compound 87] | 5 | 0.004 | 0.03 | 0.001
Cc1ccc(Cl)c(N=C(OCc2cccc(Oc3ccccc3)c2)C(C)C)c1 [Compound 93] | 64 | 0.005 | > 0.1 | 0.003
Cc1ccc(N=C(OCc2cccc(Oc3ccccc3)c2)C(C)C)c(Cl)c1 [Compound 94] | 44 | 0.0045 | 0.075 | 0.001
COc1cc(N=C(OCc2cccc(Oc3ccccc3)c2)C(C)C)c(OC)cc1Cl [Compound 99] | > 100 | 0.016 | > 0.1 | > 0.05
COc1ccc(OC)c(N=C(OCc2cccc(Oc3ccccc3)c2)C(C)C)c1Cl [Compound 100] | 100 | 0.05 | > 0.1 | > 0.05
CCC(CC)C(=Nc1ccc(C(C)C)cc1)OCc1cccc(Oc2ccccc2)c1 [Compound 321] | > 100 | 0.05 | > 0.1 | 

SMILES | LC50 HF [1] [µg] | LC50 CL [2] [%] | LC50 TBW E (eggs) [3] [%] | LC50 BBA [4] [%]
CC(C)c1ccc(N=C(OCc2cccc(Oc3ccc(F)cc3)c2)C(C)(C)C)cc1 [Compound 322] | > 100 | 0.007 | > 0.1 | 
FC(F)(F)c1ccc(Oc2ccc(COC(=Nc3ccc(Cl)cc3)C(Cl)Cl)cc2)nc1 [Compound 453] | > 100 | 0.1 |  | > 0.05
CC(C)C(=Nc1ccc2c(c1)OCO2)OCc1c(F)c(F)c(F)c(F)c1F [Compound 464] | > 100 | 0.08 | > 0.1 | 
CC(C)C(=Nc1ccc2c(c1)OCO2)OCc1cccc(Oc2ccccc2)n1 [Compound 467] | 6 | 0.003 | 0.04 | 
CC(C)C(=Nc1ccc(F)c(Cl)c1)OCc1cccc(OCc2ccccc2)c1 [Compound 472] | > 100 | 0.0025 | > 0.1 | 
CC(C)C(=Nc1ccc(F)c(Cl)c1)OCc1ccc(F)c(Br)c1 [Compound 473] | > 100 | 0.025 | > 0.1 | 
CC(C)C(=Nc1ccc(F)c(Cl)c1)OCc1coc(Cc2ccccc2)c1 [Compound 474] | 8 | 0.0012 | > 0.1 | 
CC(C)C(=Nc1cccc(C(F)(F)F)c1)OCc1ccc(OCc2ccccc2)cc1 [Compound 476] | > 100 | 0.015 | > 0.1 | 
C=CCOc1cccc(COC(=Nc2ccc(Cl)c(Cl)c2)C(C)C)c1 [Compound 481] | > 100 | 0.015 | > 0.1 | 
CC(C)C(=Nc1ccc(Cl)cc1)OCc1coc(Cc2ccccc2)c1 [Compound 484] | 16 | 0.003 | > 0.1 | 
CC(C)C(=Nc1ccc(F)c(F)c1)OCc1coc(Cc2ccccc2)c1 [Compound 485] | 24 | > 0.1 | > 0.1 | 
CC(C)C(=Nc1ccc(F)c(Cl)c1)OCc1ccc(OCc2ccc(F)cc2)cc1 [Compound 487] | > 100 | 0.023 | > 0.1 | 
CC(C)C(=Nc1cccc(C(F)(F)F)c1)OCc1ccc(OCc2ccc(F)cc2)cc1 [Compound 488] | > 100 | 0.025 | > 0.1 | 
CC(C)C(=Nc1cccc(C(F)(F)F)c1)OCc1cccc(OCc2ccc(F)cc2)c1 [Compound 489] | > 100 | < 0.1 | > 0.1 | 
CC(C)C(=Nc1ccc(F)cc1)OCc1coc(Cc2ccccc2)c1 [Compound 491] | 9 | 0.0028 | 0.08 | 
CC(C)C(=Nc1cccc(C(F)(F)F)c1)OCc1cccc(Oc2ccc(Br)cc2)n1 [Compound 493] | 36 | 0.0008 | 0.05 | 
Cc1ccc(Oc2cccc(COC(=Nc3ccc(F)c(Cl)c3)C(C)C)n2)cc1 [Compound 494] | 34 | 0.003 | > 0.1 | 
Cc1ccc(Oc2cccc(COC(=Nc3cccc(C(F)(F)F)c3)C(C)C)n2)cc1 [Compound 495] | > 100 | 0.012 | 0.1 | 
CC(C)C(=Nc1ccc(C(C)(C)C)cc1)OCc1cccc(Oc2ccccc2)n1 [Compound 496] | > 100 | 0.006 | > 0.1 | 
CC(C)C(=Nc1ccc(C(C)(C)C)cc1)OCc1cccc(Oc2ccc(Cl)cc2)n1 [Compound 497] | > 100 | 0.0075 | > 0.1 | 
